Consider 16 compounds from ChEMBL document CHEMBL1201862, “PubChem BioAssay data set” (2004).

Each structure is given as a SMILES string. Active and inactive are the calls of the source.

Nuclear receptor subfamily 5 group A member 2, sequence (O00482 whole entry): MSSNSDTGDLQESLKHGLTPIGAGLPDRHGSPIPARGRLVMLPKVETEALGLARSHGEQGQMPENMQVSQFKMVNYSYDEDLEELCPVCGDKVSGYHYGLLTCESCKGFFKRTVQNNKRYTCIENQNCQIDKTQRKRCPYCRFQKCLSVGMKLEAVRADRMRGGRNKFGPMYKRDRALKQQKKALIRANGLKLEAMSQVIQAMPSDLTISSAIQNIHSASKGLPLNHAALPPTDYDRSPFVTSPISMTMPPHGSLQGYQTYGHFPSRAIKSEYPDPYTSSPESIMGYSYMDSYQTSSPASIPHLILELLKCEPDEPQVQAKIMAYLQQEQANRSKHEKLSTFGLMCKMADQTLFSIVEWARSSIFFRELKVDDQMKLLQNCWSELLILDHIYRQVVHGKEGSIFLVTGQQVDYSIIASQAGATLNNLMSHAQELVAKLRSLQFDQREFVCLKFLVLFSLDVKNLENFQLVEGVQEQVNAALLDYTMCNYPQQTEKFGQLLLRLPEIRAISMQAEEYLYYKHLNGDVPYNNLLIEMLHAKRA
T1 sequence (P49327 whole entry, the tested form may be a part): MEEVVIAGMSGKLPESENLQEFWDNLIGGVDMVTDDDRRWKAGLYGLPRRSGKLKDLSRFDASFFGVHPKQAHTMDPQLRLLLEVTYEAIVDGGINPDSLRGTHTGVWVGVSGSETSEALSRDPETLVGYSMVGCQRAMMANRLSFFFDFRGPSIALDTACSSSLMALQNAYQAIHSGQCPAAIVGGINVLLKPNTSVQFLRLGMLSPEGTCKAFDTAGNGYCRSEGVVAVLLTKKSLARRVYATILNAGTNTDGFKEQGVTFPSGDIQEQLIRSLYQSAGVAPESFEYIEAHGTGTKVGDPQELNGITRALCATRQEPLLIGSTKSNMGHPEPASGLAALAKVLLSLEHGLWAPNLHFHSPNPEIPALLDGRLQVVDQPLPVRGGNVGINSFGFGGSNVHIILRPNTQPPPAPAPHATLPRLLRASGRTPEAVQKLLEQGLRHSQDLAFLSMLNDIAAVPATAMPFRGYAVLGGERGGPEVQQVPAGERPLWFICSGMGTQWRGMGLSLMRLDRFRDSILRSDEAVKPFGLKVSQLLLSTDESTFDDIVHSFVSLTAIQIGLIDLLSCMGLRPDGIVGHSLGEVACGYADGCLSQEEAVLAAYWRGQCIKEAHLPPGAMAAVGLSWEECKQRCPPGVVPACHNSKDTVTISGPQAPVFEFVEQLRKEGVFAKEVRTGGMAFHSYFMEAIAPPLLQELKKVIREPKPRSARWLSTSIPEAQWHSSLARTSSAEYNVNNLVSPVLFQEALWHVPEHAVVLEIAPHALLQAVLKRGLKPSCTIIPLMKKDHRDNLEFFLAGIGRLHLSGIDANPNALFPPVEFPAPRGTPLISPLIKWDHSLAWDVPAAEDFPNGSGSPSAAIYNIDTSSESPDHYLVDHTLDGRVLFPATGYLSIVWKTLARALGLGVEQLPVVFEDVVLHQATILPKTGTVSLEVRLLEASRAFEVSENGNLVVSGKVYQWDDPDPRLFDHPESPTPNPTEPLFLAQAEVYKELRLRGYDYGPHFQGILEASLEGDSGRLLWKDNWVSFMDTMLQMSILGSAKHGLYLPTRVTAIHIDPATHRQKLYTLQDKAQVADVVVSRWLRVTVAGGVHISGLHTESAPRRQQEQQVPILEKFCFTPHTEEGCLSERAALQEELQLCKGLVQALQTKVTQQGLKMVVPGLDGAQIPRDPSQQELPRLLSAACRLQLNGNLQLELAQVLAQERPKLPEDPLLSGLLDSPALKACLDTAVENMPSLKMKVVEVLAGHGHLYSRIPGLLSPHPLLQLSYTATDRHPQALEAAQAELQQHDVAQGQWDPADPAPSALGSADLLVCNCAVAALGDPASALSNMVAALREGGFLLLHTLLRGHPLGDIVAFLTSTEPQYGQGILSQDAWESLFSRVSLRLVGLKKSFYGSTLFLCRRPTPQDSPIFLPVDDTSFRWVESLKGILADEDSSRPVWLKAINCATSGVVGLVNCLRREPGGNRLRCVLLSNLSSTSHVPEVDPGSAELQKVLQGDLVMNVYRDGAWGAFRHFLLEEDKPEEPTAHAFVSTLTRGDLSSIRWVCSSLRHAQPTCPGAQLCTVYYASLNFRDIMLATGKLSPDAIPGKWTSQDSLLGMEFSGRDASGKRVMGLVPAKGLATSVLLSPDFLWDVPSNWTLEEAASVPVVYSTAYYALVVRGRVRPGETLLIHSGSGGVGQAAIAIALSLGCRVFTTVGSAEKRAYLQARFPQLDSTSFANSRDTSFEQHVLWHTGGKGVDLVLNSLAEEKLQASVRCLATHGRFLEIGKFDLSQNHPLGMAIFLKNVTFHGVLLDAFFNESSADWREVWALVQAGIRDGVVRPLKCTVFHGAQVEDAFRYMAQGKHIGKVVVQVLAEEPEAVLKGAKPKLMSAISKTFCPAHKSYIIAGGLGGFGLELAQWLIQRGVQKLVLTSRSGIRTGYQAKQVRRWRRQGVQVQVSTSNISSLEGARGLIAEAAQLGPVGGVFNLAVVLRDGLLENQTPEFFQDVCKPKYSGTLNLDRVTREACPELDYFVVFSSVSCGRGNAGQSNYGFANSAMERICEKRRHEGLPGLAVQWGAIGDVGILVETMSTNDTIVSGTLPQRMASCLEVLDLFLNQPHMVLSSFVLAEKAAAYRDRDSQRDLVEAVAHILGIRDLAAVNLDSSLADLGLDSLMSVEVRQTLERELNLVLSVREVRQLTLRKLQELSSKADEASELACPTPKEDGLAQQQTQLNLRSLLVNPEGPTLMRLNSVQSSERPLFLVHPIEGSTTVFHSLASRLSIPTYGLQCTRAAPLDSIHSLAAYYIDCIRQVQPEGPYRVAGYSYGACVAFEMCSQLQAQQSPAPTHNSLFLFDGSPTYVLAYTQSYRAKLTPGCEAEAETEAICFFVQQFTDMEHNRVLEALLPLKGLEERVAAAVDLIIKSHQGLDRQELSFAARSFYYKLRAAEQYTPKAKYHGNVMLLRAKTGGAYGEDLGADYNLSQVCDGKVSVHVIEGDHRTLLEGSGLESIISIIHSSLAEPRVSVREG

One assay addresses Nuclear receptor subfamily 5 group A member 2 (Homo sapiens, UniProt O00482).
Test: not given
Settings: not given
The class given is functional, cell-based.
Turning to `CCOc1ccc(OCCN2C(=O)NC(Cc3c[nH]c4ccccc34)C2=O)cc1` (centres undefined), the IC50 is 4.18 µM (active).

Consider `COc1ccc(CCn2c(C)cc(C(=O)COC(=O)c3ccc(O)cc3O)c2C)cc1`, for which the IC50 was 35.9 µM (inactive).

As for `COc1ccc(CCNC(=O)COC(=O)c2cc(Cl)nc(Cl)c2)cc1`, the IC50 was 8.32 µM (active).

As for `Cc1ccc(NC(=O)CSc2nc3nc(O)cc(O)c3s2)c(Br)c1`, the IC50 is 35.9 µM (inactive).

Turning to `CC(=O)Nc1cc(-c2ccc(S(C)(=O)=O)cc2)cn2c(-c3ccc(F)cc3)cnc12`, the IC50 is 8.24 µM (active).

Another assay addresses T1, Fatty acid synthase (Homo sapiens, UniProt P49327). Description: FAS thioesterase domain inhibitors, dose response, biochemical, endpoint fluorescence intensity, uHTS hits (AID 624327).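 Note: fluorescence from hydrolysis of an O-methyl fluorescein acyl ester substrate by the enzyme.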 The assay is classed as functional.
Settings: not given
With `CCn1c(=S)sc2c(=O)n(CC(=O)NC(C)CCc3ccccc3)c(C)nc21` (centres undefined), the IC50 was 9.52 µM (active).

Take `CC(C)(C)c1ccc(/C=C2\CCn3c2nc2cc(C(=O)O)ccc2c3=O)cc1`: the IC50 was 3.26 µM (active).

Another assay has as its target T2, Low molecular weight phosphotyrosine protein phosphatase (Homo sapiens, UniProt P24666).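 Note: Dose-response confirmation assay measuring inhibition of LMPTP enzyme activity by fluorescence intensity read-out.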
T2 sequence (P24666 whole entry): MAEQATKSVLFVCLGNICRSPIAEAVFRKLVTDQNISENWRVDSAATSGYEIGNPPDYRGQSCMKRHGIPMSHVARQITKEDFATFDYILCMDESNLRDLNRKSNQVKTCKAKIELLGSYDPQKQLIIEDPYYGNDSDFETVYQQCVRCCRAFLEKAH
Test: not given
The class given is functional. To be noted: read-out: IC50_Mean.
On to `O=C(Nc1cccc(-c2cn3ccccc3n2)c1)c1cc2ccccc2oc1=O`, for which the IC50 is 7.49 µM (active).

For `CCn1cc(C(=O)O)c(=O)c2cc(F)c(N3CCN(C(=S)NC(=O)c4ccc(F)cc4)CC3)cc21`, the IC50 was 11.7 µM (active).

System in another assay: not listed separately
Description: intracellular Trypanosoma cruzi inhibitors in host cells – cell-based, plate reader, cherry-pick samples, set 3, dose response (AID 651818).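 Note: compounds incubated with infected cells for about four days.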 The class given is functional.
Settings: not given
As to `C[C@H](CO)N1C[C@H](C)[C@@H](CN(C)Cc2ccc(C(F)(F)F)cc2)Oc2c(NC(=O)c3nc4ccccc4s3)cccc2C1=O`, the AC50 was 1.05 µM (active).

On to `Cc1ccc(S(=O)(=O)Nc2cccc3c2O[C@H](CN(C)Cc2ccc(C(=O)Nc4ccccc4N)cc2)[C@H](C)CN([C@H](C)CO)C3=O)cc1`, for which the AC50 is 2.26 µM (active).

Consider `C[C@@H]1CCCCO[C@@H](CN(C)Cc2ccc(C(F)(F)F)cc2)[C@@H](C)CN([C@H](C)CO)C(=O)c2cc(NS(=O)(=O)c3ccc(Cl)cc3)ccc2O1`, for which the concentration at half-maximal activity (AC50) was 3.01 µM (active).

For `C[C@H]1CN([C@@H](C)CO)C(=O)c2cccc(NS(=O)(=O)c3ccccc3)c2O[C@H]1CN(C)Cc1ccc(C(=O)Nc2ccccc2N)cc1`, the AC50 was 3.48 µM (active).

Consider `C[C@@H]1CN([C@H](C)CO)C(=O)Cc2cc(NC(=O)Nc3ccc(C(F)(F)F)cc3)ccc2O[C@H]1CN(C)Cc1ccccc1`, for which the AC50 was 4.06 µM (active).

The next assay deals with Steroidogenic factor 1 (Homo sapiens, UniProt Q13285). Description: Counterscreen for inverse agonists of the liver receptor homolog-1 (LRH-1; NR5A2): Luminescence-based cell-based high throughput dose response assay to identify inverse agonists of the Steroidogenic Factor 1 Nuclear Receptor (SF1; NR5A1). The assay is classed as functional.
Steroidogenic factor 1, sequence (Q13285 whole entry): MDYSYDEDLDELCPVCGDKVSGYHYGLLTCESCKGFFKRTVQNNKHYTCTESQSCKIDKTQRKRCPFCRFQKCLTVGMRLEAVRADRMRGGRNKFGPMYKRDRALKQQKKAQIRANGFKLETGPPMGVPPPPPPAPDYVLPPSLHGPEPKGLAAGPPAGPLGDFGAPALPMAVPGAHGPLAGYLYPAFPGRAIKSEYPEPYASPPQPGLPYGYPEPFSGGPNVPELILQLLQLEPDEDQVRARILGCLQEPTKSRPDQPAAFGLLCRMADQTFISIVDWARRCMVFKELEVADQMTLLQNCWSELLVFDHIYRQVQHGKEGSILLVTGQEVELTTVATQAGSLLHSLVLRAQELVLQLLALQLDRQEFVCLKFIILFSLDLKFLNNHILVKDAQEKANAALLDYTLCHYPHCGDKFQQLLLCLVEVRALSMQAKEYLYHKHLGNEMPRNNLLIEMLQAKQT
Settings: not given
On the technique in general: Counterscreens check selectivity or assay interference.
On to `CCOc1ccc(OCCN2C(=O)NC(Cc3c[nH]c4ccccc34)C2=O)cc1` (centres undefined), for which the IC50 is 5.29 µM (active).

Regarding `COc1ccc(CCn2c(C)cc(C(=O)COC(=O)c3ccc(O)cc3O)c2C)cc1`, the IC50 was 5.82 µM (active).

On to `COc1ccc(CCNC(=O)COC(=O)c2cc(Cl)nc(Cl)c2)cc1`, for which the IC50 is 3.23 µM (active).

Turning to `Cc1ccc(NC(=O)CSc2nc3nc(O)cc(O)c3s2)c(Br)c1`, the IC50 was 9.35 µM (active).

On to `CC(=O)Nc1cc(-c2ccc(S(C)(=O)=O)cc2)cn2c(-c3ccc(F)cc3)cnc12`, for which the IC50 was 3.11 µM (active).

System in the next assay: not listed separately
Description: StAR promoter reporter inhibition counter-screen, dose response, counter-screen for LRH-1 inverse agonist project, cell-based, luminescence, luciferase reporter (AID 651969). The class given is functional.
Settings: not given
On to `CCOc1ccc(OCCN2C(=O)NC(Cc3c[nH]c4ccccc34)C2=O)cc1` (centres undefined), for which the IC50 was 35.9 µM (inactive).

As to `COc1ccc(CCn2c(C)cc(C(=O)COC(=O)c3ccc(O)cc3O)c2C)cc1`, the IC50 was 35.9 µM (inactive).

`COc1ccc(CCNC(=O)COC(=O)c2cc(Cl)nc(Cl)c2)cc1`: the IC50 is 35.9 µM (inactive).

Regarding `Cc1ccc(NC(=O)CSc2nc3nc(O)cc(O)c3s2)c(Br)c1`, the IC50 was 35.9 µM (inactive).

With `CC(=O)Nc1cc(-c2ccc(S(C)(=O)=O)cc2)cn2c(-c3ccc(F)cc3)cnc12`, the IC50 is 23.7 µM (inactive).

The next assay addresses T1, Fatty acid synthase. Description: FAS thioesterase domain inhibitors, dose response, biochemical, kinetic fluorescence intensity (AID 624326).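 Note: rate of fluorescence rise from hydrolysis of a fluorogenic O-methyl fluorescein ester substrate.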 The assay is classed as functional.
Settings: not given
On to `CCn1c(=S)sc2c(=O)n(CC(=O)NC(C)CCc3ccccc3)c(C)nc21` (centres undefined), for which the IC50 was 16.8 µM (active).

For the compound `CC(C)(C)c1ccc(/C=C2\CCn3c2nc2cc(C(=O)O)ccc2c3=O)cc1`, the IC50 was 3 µM (active).

System in the next assay: not listed separately
Description: inhibitors of HIV Env-driven cell fusion, dose response, cherry-pick (AID 652057).
Settings: not given
The assay is classed as functional, cell-based.
Turning to `C[C@@H]1CN([C@@H](C)CO)S(=O)(=O)c2ccc(C3=CCCC3)cc2O[C@@H]1CN(C)C(=O)C1CCOCC1`, the concentration at half-maximal activity (AC50) was 59 µM (active).

System in another assay: not listed separately
Nature of the assay: ZM109 Env clade C HIV-1 fusion inhibitors, dose response, HeLa effector, CEM target cells, luciferase, cherry-pick (AID 652058). The class given is functional, cell-based.
Settings: not given
As for `CCc1ccc(C(=O)CN2C(=O)NC(C)(c3ccc(C)cc3)C2=O)cc1` (centres undefined), the AC50 is 69 µM (active).

Take `C[C@@H]1CN([C@@H](C)CO)S(=O)(=O)c2ccc(C3=CCCC3)cc2O[C@@H]1CN(C)C(=O)C1CCOCC1`: the AC50 was 10.2 µM (active).

The AC50 is the concentration giving half of the maximal activity seen.
